The values below come from patent publication US7199148B2, “Broadspectrum substituted oxindole sulfonamide HIV protease inhibitors” (priority 2002, dated 2007).

The structures appear in SMILES notation. Where two headings read alike, the source gives them in different places.

The term CC50 denotes the concentration at which the toxic effect on the cells reaches its halfway point. Low values mean greater toxicity to the cells, high ones lower toxicity to the cells.

Holding throughout (assay type): cell-based
The test system of data set [1] is HIV strain E. Description: Antiviral spectrum, clinically isolated mutant strain E. The note with it: FR=EC50(mutant strain)/EC50(HIV-1 strain LAI). As to the method:
(§1) HIV- or mock-infected MT4 cells were incubated for five days in the presence of various concentrations of the inhibitor. At the end of the incubation period, all HIV-infected cells have been killed by the replicating virus in the control cultures in the absence of any inhibitor. Cell viability is measured by measuring the concentration of MTT, a yellow, water soluble tetrazolium dye that is converted to a purple, water insoluble formazan in the mitochondria of living cells only. Upon solubilization of the resulting formazan crystals with isopropanol, the absorbance of the solution is monitored at 540 nm. The values correlate directly to the number of living cells remaining in the culture at the completion of the five day incubation. The inhibitory activity of the compound was monitored on the virus-infected cells and was expressed as EC50 and EC90. These values represent the amount of the compound required to protect 50% and 90%, respectively, of the cells from the cytopathogenic effect of the virus. The toxicity of the compound was measured on the mock-infected cells and was expressed as CC50, which represents the concentration of compound required to inhibit the growth of the cells by 50%. The selectivity index (SI) (ratio CC50/EC50) is an indication of the selectivity of the anti-HIV activity of the inhibitor. Wherever results are reported as e.g. pEC50 or pCC50 values, the result is expressed as the negative logarithm of the result expressed as EC50 or CC50 respectively.
(§2) Because of the increasing emergence of drug resistant HIV strains, the present compounds were tested for their potency against clinically isolated HIV strains harboring several mutations (Table 2 and 3). These mutations are associated with resistance to protease inhibitors and result in viruses that show various degrees of phenotypic cross-resistance to the currently commercially available drugs such as for instance saquinavir, ritonavir, nelfinavir, indinavir and amprenavir.
(§3) As a measure of the broad spectrum activity of the present compounds, the fold resistance (FR), defined as FR=EC50(mutant strain)/EC50(HIV-1 strain LAI), was determined.

In data set [2] the test system is HIV strain A. Kind of data set: Antiviral spectrum, clinically isolated mutant strain A. The note with it: FR=EC50(mutant strain)/EC50(HIV-1 strain LAI). As to the method:
as §1, §2, §3

Data set [3] concerns HIV strain C. Kind of data set: Antiviral spectrum, clinically isolated mutant strain C. The settings on record: FR=EC50(mutant strain)/EC50(HIV-1 strain LAI). Here is the method: as §1, §2, §3
For data set [4], the system named is HIV-1 strain LAI. Description: Cellular anti-HIV assay, MT4 cells, MTT read-out, wild type strain. As to the method:
as §1, with “The compounds of the present invention were examined for anti-viral activity in a cellular assay. […] The cellular assay was performed according to the following procedure. HIV- or” for “HIV- or”

For data set [5], the system named is HIV strain B. Kind of data set: Antiviral spectrum, clinically isolated mutant strain B. The settings on record: FR=EC50(mutant strain)/EC50(HIV-1 strain LAI). Here is the method: as §1, §2, §3
In data set [6] the test system is HIV strain F. Description: Antiviral spectrum, clinically isolated mutant strain F. The note with it: FR=EC50(mutant strain)/EC50(HIV-1 strain LAI). Here is the method:
as §1, §2, §3

The subject of data set [7] is HIV strain D. Kind of data set: Antiviral spectrum, clinically isolated mutant strain D. The settings on record: FR=EC50(mutant strain)/EC50(HIV-1 strain LAI). As to the method: as §1, §2, §3
Data set [8] can be described thus: Toxicity on mock-infected MT4 cells (MTT). The note with it: human. As to the method:
as §1, §3

Where [9] appears, read: Human immunodeficiency virus 1, MT4, Table 3, wild type HIV-LAI strain, read-out: WT (pEC50) (converted).
Setting [10] is: Human immunodeficiency virus 1, 120 h, Table 1, MT4 cells, five days incubation, HIV-1 strain LAI, read-out: pEC50 (converted).

`CC(C)CN(C[C@@H](O)[C@H](Cc1ccccc1)NC(=O)OC1COC2OCCC12)S(=O)(=O)c1ccc2c(c1)CC(=O)N2` (stereo in doubt) [Compound 21, Hexahydrofuro[2,3-b]furan-3-yl N-(1-benzyl-2-hydroxy-3-{isobutyl[(2-oxo-2,3-dihydro-1H-indol-5-yl)sulfonyl]amino}propyl}carbamate]: the “E (FR towards mutant E)” value in data set [1] is 0.56. Moreover, the “A (FR towards mutant A)” value in data set [2] is 1.0. In addition, the “C (FR towards mutant C)” value in data set [3] worked out at 0.7. Besides, the EC50 in data set [4] (setting [9]) is 158 nM. In data set [5], the “B (FR towards mutant B)” value is 1.1. The “F (FR towards mutant F)” value in data set [6] was determined as 1.2. Besides, the “D (FR towards mutant D)” value in data set [7] is 0.33. In data set [8], this compound gave a CC50 at 5 days of 100000 nM.
Regarding `CC(C)CN(CC(O)C(Cc1ccccc1)NC(=O)OC1COC2OCCC12)S(=O)(=O)c1ccc2c(c1)C(=Cc1ccc[nH]1)C(=O)N2` (stereo not shown) [Compound 1, (1-Benzyl-2-hydroxy-3-{isobutyl-[2-oxo-3-(1H-pyrrol-2-ylmethylene)-2,3-dihydro-1H-indole-5-sulfonyl]-amino}-propyl)-carbamic acid hexahydrofuro[2,3-b]furan-3-yl ester], the “E (FR towards mutant E)” value in data set [1] is listed as 6.2. Moreover, the “A (FR towards mutant A)” value in data set [2] was 4.3. Moreover, the “C (FR towards mutant C)” value in data set [3] turned out to be 2.1. Moreover, the EC50 in data set [4] (setting [10]) and in data set [4] (setting [9]) was 3.16 nM throughout. Further, the “B (FR towards mutant B)” value in data set [5] was 8.7. For the same compound, the “F (FR towards mutant F)” value in data set [6] came to 10. Besides, the “D (FR towards mutant D)” value in data set [7] was 2.0. In data set [8], the CC50 at 5 days is 12600 nM.
Take `Cc1ccc(C=C2C(=O)Nc3ccc(S(=O)(=O)N(CC(C)C)CC(O)C(Cc4ccccc4)NC(=O)OC4COC5OCCC45)cc32)o1` (stereo not shown) [Compound 2, (1-Benzyl-2-hydroxy-3-{isobutyl-[3-(5-methyl-furan-2-ylmethylene)-2-oxo-2,3-dihydro-1H-indole-5-sulfonyl]-amino}-propyl)-carbamic acid hexahydro-furo[2,3-b]furan-3-yl ester]: the “E (FR towards mutant E)” value in data set [1] worked out at 3.1. In addition, the “A (FR towards mutant A)” value in data set [2] was found to be 1.7. The “C (FR towards mutant C)” value in data set [3] came to 1. In addition, the EC50 in data set [4] (setting [10]) was 8.51 nM; in data set [4] (Human immunodeficiency virus 1, MT4, read-out: WT (pEC50) (converted)), 9.77 nM. Further, the “B (FR towards mutant B)” value in data set [5] came to 3.6. In addition, the “F (FR towards mutant F)” value in data set [6] stood at 3.9. Moreover, the “D (FR towards mutant D)” value in data set [7] is 3.8. This compound also showed a 50% cytotoxic concentration (CC50) at 5 days in data set [8] of 20000 nM.
Regarding `Cc1ccc(C=C2C(=O)Nc3ccc(S(=O)(=O)N(CC(C)C)CC(O)C(Cc4ccccc4)NC(=O)OC4COC5OCCC45)cc32)s1` (stereo not shown) [Compound 3, (1-Benzyl-2-hydroxy-3-{isobutyl-[3-(5-methyl-thiophen-2-ylmethylene)-2-oxo-2,3-dihydro-1H-indole-5-sulfonyl]-amino}-propyl)-carbamic acid hexahydro-furo[2,3-b]furan-3-yl ester], in data set [1], the “E (FR towards mutant E)” value came to 7.1. Besides, the “A (FR towards mutant A)” value in data set [2] is recorded as 3.0. In addition, in data set [3], the “C (FR towards mutant C)” value amounted to 2.6. The results for the EC50 in data set [4] (setting [10]) and in data set [4] (setting [9]) were 11.5 nM and 12.6 nM, respectively. For the same compound, in data set [5], the “B (FR towards mutant B)” value came to 3.8. Further, the “F (FR towards mutant F)” value in data set [6] was determined as 6.8. For the same compound, the “D (FR towards mutant D)” value in data set [7] is 3.0. The cytotoxic concentration (CC50) at 5 days in data set [8] was 100000 nM.
As for `CC(C)CN(CC(O)C(Cc1ccccc1)NC(=O)OC1COC2OCCC12)S(=O)(=O)c1ccc2c(c1)C(=Cc1cccn1C)C(=O)N2` (stereo not shown) [Compound 4, (1-Benzyl-2-hydroxy-3-{isobutyl-[3-(1-methyl-1H-pyrrol-2-ylmethylene)-2-oxo-2,3-dihydro-1H-indole-5-sulfonyl]-amino}-propyl)-carbamic acid hexahydro-furo[2,3-b]furan-3-yl ester], in data set [1], the “E (FR towards mutant E)” value turned out to be 2.4. Further, in data set [2], the “A (FR towards mutant A)” value is listed as 2.3. Also, the “C (FR towards mutant C)” value in data set [3] was found to be 1.7. In addition, the EC50 was 15.5 nM in data set [4] (setting [10]) and 15.8 nM in data set [4] (setting [9]). In addition, in data set [5], the “B (FR towards mutant B)” value is on record as 1.9. Besides, the “F (FR towards mutant F)” value in data set [6] worked out at 2.0. In addition, the “D (FR towards mutant D)” value in data set [7] was 1.9. The same compound showed a CC50 at 5 days in data set [8] of 100000 nM.
For `CCC(C=C1C(=O)Nc2ccc(S(=O)(=O)N(CC(C)C)CC(O)C(Cc3ccccc3)NC(=O)OC3COC4OCCC34)cc21)CC` (stereo not shown) [Compound 5, (1-Benzyl-3-{[3-(2-ethyl-butylidene)-2-oxo-2,3-dihydro-1H-indole-5-sulfonyl]-isobutyl-amino}-2-hydroxy-propyl)-carbamic acid hexahydro-furo[2,3-b]furan-3-yl ester], the “E (FR towards mutant E)” value in data set [1] turned out to be 4.2. In data set [2], the “A (FR towards mutant A)” value was found to be 1.9. For the same compound, the “C (FR towards mutant C)” value in data set [3] turned out to be 2.0. The EC50 was 16.6 nM in data set [4] (setting [10]) and 15.8 nM in data set [4] (setting [9]). The “B (FR towards mutant B)” value in data set [5] amounted to 8.3. Moreover, the “F (FR towards mutant F)” value in data set [6] is on record as 6.5. For the same compound, in data set [7], the “D (FR towards mutant D)” value worked out at 2.0. In data set [8], this compound showed a CC50 at 5 days of 63100 nM.
Take `CC(C)C=C1C(=O)Nc2ccc(S(=O)(=O)N(CC(C)C)CC(O)C(Cc3ccccc3)NC(=O)OC3COC4OCCC34)cc21` (stereo not shown) [Compound 6, {1-Benzyl-2-hydroxy-3-[isobutyl-(3-isobutylidene-2-oxo-2,3-dihydro-1H-indole-5-sulfonyl)-amino]-propyl}-carbamic acid hexahydro-furo[2,3-b]furan-3-yl ester]: the “E (FR towards mutant E)” value in data set [1] came out at 2.0. In addition, the “A (FR towards mutant A)” value in data set [2] was found to be 2.5. Moreover, in data set [3], the “C (FR towards mutant C)” value was found to be 1.6. For the same compound, the values for the EC50 in data set [4] (setting [10]) and in data set [4] (setting [9]) were 19.5 nM and 20 nM, respectively. The “B (FR towards mutant B)” value in data set [5] was 7.1. In addition, in data set [6], the “F (FR towards mutant F)” value worked out at 7.9. In addition, the “D (FR towards mutant D)” value in data set [7] was 1.4. In data set [8], this compound showed a CC50 at 5 days of 50100 nM.
In the case of `CC(C)CN(CC(O)C(Cc1ccccc1)NC(=O)OC1COC2OCCC12)S(=O)(=O)c1ccc2c(c1)/C(=C\c1ccco1)C(=O)N2` (stereo not shown) [Compound 7, Hexahydrofuro[2,3-b]furan-3-yl N-{1-benzyl-3-[({3-[(E)-2-furylmethylidene]-2-oxo-2,3-dihydro-1H-indol-5-yl}sulfonyl) (isobutyl)amino]-2-hydroxypropyl}carbamate], in data set [1], the “E (FR towards mutant E)” value was 5.9. The “A (FR towards mutant A)” value in data set [2] is 1.8. Moreover, the “C (FR towards mutant C)” value in data set [3] was determined as 1.7. The EC50 in data set [4] (setting [10]) was 19.5 nM; in data set [4] (setting [9]), 20 nM. Besides, the “B (FR towards mutant B)” value in data set [5] is 2.6. Moreover, in data set [6], the “F (FR towards mutant F)” value is given as 1.9. The “D (FR towards mutant D)” value in data set [7] worked out at 2.4. For the same compound, the midpoint of cytotoxicity in data set [8], the CC50 at 5 days, lay at 79400 nM.
On to `Cc1ccc(C=C2C(=O)Nc3ccc(S(=O)(=O)N(CC(C)C)CC(OP(=O)(O)O)C(Cc4ccccc4)NC(=O)OC4COC5OCCC45)cc32)o1` (stereo not shown) [Compound 19, (1-Benzyl-3-{isobutyl-[3-(5-methyl-furan-2-ylmethylene)-2-oxo-2,3-dihydro-1H-indole-5-sulfonyl]-amino}-2-phosphonooxy-propyl)-carbamic acid hexahydro-furo[2,3-b]furan-3-yl ester], for which the EC50 in data set [4] (setting [10]) is 302 nM.
The same measure, in the same setting: the same measure for `CC(C)CN(CC(O)C(Cc1ccccc1)NC(=O)OC1COC2OCCC12)S(=O)(=O)c1ccc2c(c1)C(=Cc1ccc(C(=O)O)cc1)C(=O)N2` (stereo not shown) [Compound 20, 4-(5-{[3-(Hexahydro-furo[2,3-b]furan-3-yloxycarbonylamino)-2-hydroxy-4-phenyl-butyl]-isobutyl-sulfamoyl}-2-oxo-1,2-dihydro-indol-3-ylidenemethyl)-benzoic acid]: 891 nM.
